{"source": "patent US20130005568A1", "about": "“SAFENED HERBICIDAL MIXTURES” (E.I. DU PONT DE NEMOURS AND COMPANY, priority 2011, published 2013)", "key": {"Bermudagrass": {"tested_on": "Bermudagrass", "assay": "Test G: turf grass and weed postemergence plant response rating", "type": "in vivo, Cynodon dactylon (L.) Pers.", "conditions": "Bermudagrass, postemergence, greenhouse, three weeks, 0-100 scale", "text": "(§1) For all of the following biological tests, plant response ratings were based on a 0-100 scale where zero is growth equivalent to that of untreated plants (no plant response) and 100 represents no additional growth occurring after herbicide treatment.\nPlants of the turf grass species: zoysia (Zoysia japonica Steud.), bermudagrass (Cynodon dactylon (L.) Pers.), tall fescue (Festuca arundinacea Shreib.), creeping bentgrass (Agrostis stoonoifera L.), perennial ryegrass (Lolium perenne L.) and hard fescue (Festuca species) were grown under greenhouse conditions for four months. Plants were clipped as needed to plant heights of 5-10 cm. […] Herbicide mixtures were formulated, dissolved/dispersed in water containing 0.25% non-ionic surfactant, and sprayed postemergence to these turf grasses and weeds. Treated plants were grown under greenhouse conditions for three weeks before visual evaluations of plant responses were recorded."}, "Annual bluegrass": {"tested_on": "Annual bluegrass", "assay": "Test G: turf grass and weed postemergence plant response rating", "type": "in vivo, Poa annua L.", "conditions": "Annual bluegrass, postemergence, greenhouse, three weeks, 0-100 scale", "text": "as §1\n(§2) Plants of the turf grass species: zoysia (Zoysia japonica Steud.), bermudagrass (Cynodon dactylon (L.) Pers.), tall fescue (Festuca arundinacea Shreib.), creeping bentgrass (Agrostis stoonoifera L.), perennial ryegrass (Lolium perenne L.) and hard fescue (Festuca species) were grown under greenhouse conditions for four months. Plants were clipped as needed to plant heights of 5-10 cm. Weeds typically found in turf: annual bluegrass (Poa annua L.), common chickweed (Stellaria media (L.) Vill.), large crabgrass (Digitaria sanguinales (L.) Scop.), dandelion (Taraxacum officinale Weber in Wiggers), goosegrass (Eleusine indica (L.) Gaertn.), henbit (Lamium amplexicaule L.), venice mallow (Hibiscus trionium L.) and purple nutsedge (Cyperus rotundus L.) were also grown under greenhouse conditions so that plants were 5-20 cm tall when they were treated. Herbicide mixtures were formulated, dissolved/dispersed in water containing 0.25% non-ionic surfactant, and sprayed postemergence to these turf grasses and weeds. Treated plants were grown under greenhouse conditions for three weeks before visual evaluations of plant responses were recorded."}, "Chickweed": {"tested_on": "Chickweed", "assay": "Test G: turf grass and weed postemergence plant response rating", "type": "in vivo, Stellaria media (L.) Vill.", "conditions": "Chickweed, postemergence, greenhouse, three weeks, 0-100 scale", "text": "as §1, §2"}, "Large crabgrass": {"tested_on": "Large crabgrass", "assay": "Test G: turf grass and weed postemergence plant response rating", "type": "in vivo, Digitaria sanguinales (L.) Scop.", "conditions": "Large crabgrass, postemergence, greenhouse, three weeks, 0-100 scale", "text": "as §1, §2"}, "Dandelion": {"tested_on": "Dandelion", "assay": "Test G: turf grass and weed postemergence plant response rating", "type": "in vivo, Taraxacum officinale Weber in Wiggers", "conditions": "Dandelion, postemergence, greenhouse, three weeks, 0-100 scale", "text": "as §1, §2"}, "Goosegrass": {"tested_on": "Goosegrass", "assay": "Test G: turf grass and weed postemergence plant response rating", "type": "in vivo, Eleusine indica (L.) Gaertn.", "conditions": "Goosegrass, postemergence, greenhouse, three weeks, 0-100 scale", "text": "as §1, §2"}, "Henbit": {"tested_on": "Henbit", "assay": "Test G: turf grass and weed postemergence plant response rating", "type": "in vivo, Lamium amplexicaule L.", "conditions": "Henbit, postemergence, greenhouse, three weeks, 0-100 scale", "text": "as §1, §2"}, "Venice mallow": {"tested_on": "Venice mallow", "assay": "Test G: turf grass and weed postemergence plant response rating", "type": "in vivo, Hibiscus trionium L.", "conditions": "Venice mallow, postemergence, greenhouse, three weeks, 0-100 scale", "text": "as §1, §2"}, "Purple nutsedge": {"tested_on": "Purple nutsedge", "assay": "Test G: turf grass and weed postemergence plant response rating", "type": "in vivo, Cyperus rotundus L.", "conditions": "Purple nutsedge, postemergence, greenhouse, three weeks, 0-100 scale", "text": "as §1, §2"}, "[1]": {"tested_on": "Pioneer 39K40 hybrid maize", "assay": "Test A: visual plant response rating, postemergence herbicide treatments alone and with Compound 1", "type": "in vivo, Zea mays L. spp. indentata Sturt.", "conditions": "in vivo", "procedure": "as §1\nPioneer 39K40 hybrid maize used in this test (and also Tests B and C) is particularly sensitive to herbicides that inhibit the acetohydroxy acid synthase enzyme. Herbicide mixtures were dissolved/dispersed in a non-phytotoxic liquid carrier and were sprayed postemergence to Pioneer 39K40 hybrid maize (Zea mays L. spp. indentata Sturt.) in the third collar growth stage (extended leaf height was 50-60 cm). Treated plants were grown under greenhouse conditions for two weeks before visual evaluations of plant responses were recorded."}, "[2]": {"conditions": "herbicide 200 g ai/ha + Compound 1 125 g ai/ha"}, "[3]": {"conditions": "herbicide 80 g ai/ha + Compound 1 125 g ai/ha"}}}
{"smiles": "Nc1nc(C2CC2)nc(C(=O)[O-])c1Cl.[K+]", "note": "[Aminocyclopyrachlor-potassium, aminocyclopyrachlor]", "values": [{"measurement": "Observed Response, Herbicide mixture with Compound 1", "setting": "Bermudagrass; [2]", "result": 0}, {"measurement": "Observed Response, Herbicide alone", "setting": "Bermudagrass; herbicide 200 g ai/ha", "result": 20}, {"measurement": "Observed Response, Herbicide mixture with Compound 1", "setting": "Annual bluegrass; [2]", "result": 0}, {"measurement": "Observed Response, Herbicide alone", "setting": "Annual bluegrass; herbicide 200 g ai/ha", "result": 20}, {"measurement": "Observed Response, Herbicide mixture with Compound 1", "setting": "Chickweed; [2]", "result": 100}, {"measurement": "Observed Response, Herbicide alone", "setting": "Chickweed; herbicide 200 g ai/ha", "result": 100}, {"measurement": "Observed Response, Herbicide mixture with Compound 1", "setting": "Large crabgrass; [2]", "result": 70}, {"measurement": "Observed Response, Herbicide alone", "setting": "Large crabgrass; herbicide 200 g ai/ha", "result": 80}, {"measurement": "Observed Response, Herbicide mixture with Compound 1", "setting": "Dandelion; [2]", "result": 100}, {"measurement": "Observed Response, Herbicide alone", "setting": "Dandelion; herbicide 200 g ai/ha", "result": 100}, {"measurement": "Observed Response, Herbicide mixture with Compound 1", "setting": "Goosegrass; [2]", "result": 0}, {"measurement": "Observed Response, Herbicide alone", "setting": "Goosegrass; herbicide 200 g ai/ha", "result": 50}, {"measurement": "Observed Response, Herbicide mixture with Compound 1", "setting": "Henbit; [2]", "result": 100}, {"measurement": "Observed Response, Herbicide alone", "setting": "Henbit; herbicide 200 g ai/ha", "result": 100}, {"measurement": "Observed Response, Herbicide mixture with Compound 1", "setting": "Venice mallow; [2]", "result": 98}, {"measurement": "Observed Response, Herbicide alone", "setting": "Venice mallow; herbicide 200 g ai/ha", "result": 100}, {"measurement": "Observed Response, Herbicide mixture with Compound 1", "setting": "Purple nutsedge; [2]", "result": 40}, {"measurement": "Observed Response, Herbicide alone", "setting": "Purple nutsedge; herbicide 200 g ai/ha", "result": 40}]}
{"smiles": "COC(=O)c1ccccc1S(=O)(=O)NC(=O)Nc1nc(C)nc(OC)n1", "note": "[Metsulfuron-methyl, metsulfuron-methyl]", "values": [{"measurement": "Observed Response, Herbicide alone", "setting": "[1]", "result": 99}, {"measurement": "Observed Response, Herbicide mixture with Compound 1", "setting": "Annual bluegrass; [3]", "result": 50}, {"measurement": "Observed Response, Herbicide alone", "setting": "Annual bluegrass; herbicide 80 g ai/ha", "result": 80}, {"measurement": "Observed Response, Herbicide mixture with Compound 1", "setting": "Chickweed; [3]", "result": 100}, {"measurement": "Observed Response, Herbicide alone", "setting": "Chickweed; herbicide 80 g ai/ha", "result": 100}, {"measurement": "Observed Response, Herbicide mixture with Compound 1", "setting": "Large crabgrass; [3]", "result": 0}, {"measurement": "Observed Response, Herbicide alone", "setting": "Large crabgrass; herbicide 80 g ai/ha", "result": 60}, {"measurement": "Observed Response, Herbicide mixture with Compound 1", "setting": "Dandelion; [3]", "result": 100}, {"measurement": "Observed Response, Herbicide alone", "setting": "Dandelion; herbicide 80 g ai/ha", "result": 100}, {"measurement": "Observed Response, Herbicide mixture with Compound 1", "setting": "Goosegrass; [3]", "result": 0}, {"measurement": "Observed Response, Herbicide alone", "setting": "Goosegrass; herbicide 80 g ai/ha", "result": 50}, {"measurement": "Observed Response, Herbicide mixture with Compound 1", "setting": "Henbit; [3]", "result": 100}, {"measurement": "Observed Response, Herbicide alone", "setting": "Henbit; herbicide 80 g ai/ha", "result": 100}, {"measurement": "Observed Response, Herbicide mixture with Compound 1", "setting": "Venice mallow; [3]", "result": 100}, {"measurement": "Observed Response, Herbicide alone", "setting": "Venice mallow; herbicide 80 g ai/ha", "result": 100}, {"measurement": "Observed Response, Herbicide mixture with Compound 1", "setting": "Purple nutsedge; [3]", "result": 20}, {"measurement": "Observed Response, Herbicide alone", "setting": "Purple nutsedge; herbicide 80 g ai/ha", "result": 60}]}
